A word on the Km: it is the concentration of substrate that gives half-maximal velocity.

Format in all cases: biochemical
Test [1] addresses T1, SaEAS (SaEAS-FLAG, secreted SaEASΔSP-FLAG) (Streptomyces albidoflavus, UniProt A0AA37FDV0).
T1 construct: gene ScoT_12220; full-length gene with FLAG tag overexpressed (ermE* promoter) in S. albidoflavus SM254 delta-SaEAS; signal peptide cleaved on secretion; diluted spent medium used without purification
Put plainly: anion-exchange chromatography, initial velocity of pppGpp synthesis. The following applies: ATP as PPi donor; 5 mM GTP acceptor, 0.03-1 mM ATP, 5 mM free MgCl2, 0.1 mM MnCl2, pH 7.5, 37 °C, PK/PEP.

Test [2] addresses T1, SaEAS (SaEAS-FLAG, secreted SaEASΔSP-FLAG). Kind of test: anion-exchange chromatography, initial velocity of pppApp synthesis. The following applies: ATP as PPi acceptor (second site); 0.5-10 mM ATP as donor and acceptor, 5 mM free MgCl2, 0.1 mM MnCl2, pH 7.5, 37 °C. From the text:
anion-exchange chromatography, initial velocity of pppApp synthesis on SaEAS (SaEAS-FLAG, secreted SaEASΔSP-FLAG) | the Michaelis-Menten relationship provides the Km for ATP as a PPi acceptor

Test [3] shares this target. Put plainly: anion-exchange chromatography, competition of PPi acceptors, Km from calculated acceptor-site occupancy. The following applies: 5 mM ATP, 5 mM free MgCl2, 0.1 mM MnCl2, pH 7.5, 37 °C. The source says:
anion-exchange chromatography, competition of PPi acceptors, Km from calculated acceptor-site occupancy on SaEAS (SaEAS-FLAG, secreted SaEASΔSP-FLAG) | we then calculated the acceptor-site occupancy and Km for the non-ATP substrate

A further test addresses T2, VpEAS (Vibrio parahaemolyticus, UniProt Q87Q55).
T2 construct: gene VP1295; recombinant from pET29b in E. coli BL21(DE3), cleared lysate
Put plainly: anion-exchange chromatography of lysate reaction, pppGpp-2S formation. The following applies: 5 mM ATPγS, 1 mM GTPγS, 10 mM MgCl2, 0.1 mM MnCl2, pH 7.5, 37 °C, 5 min.

For test [4], the target named is T1, SaEAS (SaEAS-FLAG, secreted SaEASΔSP-FLAG). Put plainly: anion-exchange chromatography, competition of PPi acceptors, Km derived from Vmax and Vmax/Km. The following applies: PPi acceptor; ATP donor, 5 mM free MgCl2, 0.1 mM MnCl2, pH 7.5, 37 °C; read-out: Km, acceptor(GTP). From the text: anion-exchange chromatography, competition of PPi acceptors, Km derived from Vmax and Vmax/Km on SaEAS (SaEAS-FLAG, secreted SaEASΔSP-FLAG) | We next used Vmax(pppGpp) to calculate Km, acceptor(GTP).

T1 sequence (A0AA37FDV0 entry or part of it, stated change not applied): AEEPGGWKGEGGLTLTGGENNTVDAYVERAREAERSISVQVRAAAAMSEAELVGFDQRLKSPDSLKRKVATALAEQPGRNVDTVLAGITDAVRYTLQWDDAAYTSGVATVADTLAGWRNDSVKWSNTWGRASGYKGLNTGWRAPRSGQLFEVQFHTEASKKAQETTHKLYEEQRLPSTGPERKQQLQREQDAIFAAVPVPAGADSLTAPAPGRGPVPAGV
T2 sequence (Q87Q55 entry or part of it): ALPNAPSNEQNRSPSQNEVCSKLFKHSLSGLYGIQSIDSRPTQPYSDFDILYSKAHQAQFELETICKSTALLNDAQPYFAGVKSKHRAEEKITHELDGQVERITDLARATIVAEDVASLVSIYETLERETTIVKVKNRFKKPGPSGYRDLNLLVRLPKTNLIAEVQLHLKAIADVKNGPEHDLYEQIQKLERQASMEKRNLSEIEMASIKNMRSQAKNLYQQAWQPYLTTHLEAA

On to `Nc1ncnc2c1ncn2[C@@H]1O[C@H](COP(=O)(O)OP(=O)(O)OP(=O)(O)O)[C@@H](O)[C@H]1O` [ATP], for which the Michaelis-Menten constant (Km) in test [1] stood at 82 µM. For the same compound, in test [2], the “Km, aceptor(ATP)” value is 1400 µM. For `Nc1ncnc2c1ncn2[C@@H]1O[C@H](COP(=O)(O)OP(=O)(O)O)[C@@H](O)[C@H]1O` [ADP], the Km in test [3] (5 mM ADP) is 930 ± 40 µM. `Nc1nc2c(ncn2[C@@H]2O[C@H](COP(=O)(O)OP(=O)(O)OP(O)(O)=S)[C@@H](O)[C@H]2O)c(=O)[nH]1` [GTPγS]: the “anion-exchange chromatography of lysate reaction, pppGpp-2S formation” value on VpEAS (PPi acceptor) is reported as “VpEAS specifically uses GTPγS as an acceptor nucleotide to produce pppGpp-2S”. With `Nc1ncnc2c1ncn2[C@@H]1O[C@H](COP(=O)(O)O)[C@@H](O)[C@H]1O` [AMP], in test [3] (5 mM AMP), the Michaelis constant (Km) is 2200 ± 200 µM.

With `Nc1nc2c(ncn2[C@@H]2O[C@H](COP(=O)(O)O)[C@@H](O)[C@H]2O)c(=O)[nH]1` [GMP], the Michaelis constant (Km) in test [3] (0.5 mM GMP) was 64 ± 3 µM. Consider `Nc1nc2c(ncn2[C@@H]2O[C@H](COP(=O)(O)OP(=O)(O)OP(=O)(O)O)[C@@H](O)[C@H]2O)c(=O)[nH]1` [GTP], for which, in test [4], the Km came to 50 ± 4 µM. As for `Nc1ncnc2c1ncn2[C@@H]1O[C@H](COP(=O)(O)OP(=O)(O)OP(O)(O)=S)[C@@H](O)[C@H]1O` [ATPγS], on VpEAS (PPi donor), the “anion-exchange chromatography of lysate reaction, pppGpp-2S formation” value was “Reactions were carried out using the non-hydrolyzable thiophosphates ATPγS and GTPγS”.

The record behind these values is paper PMC12691689, “Bacteria export alarmone synthetases that produce (p)ppApp and (p)ppGpp” (mBio, 2025).
